Test results as given in patent US20250059227A1, “ARTIFICIAL NUCLEIC ACID, METHOD FOR PRODUCING SAME, AND USE OF SAME” (RIKEN GENESIS CO., LTD., priority 2021, published 2025).
[NMe] = code of the source, not defined here; [(B)β] = from compound B-13; [(C)Hβ] = from compound C-8; d = 2'-deoxy (DNA)

Tests used:
[1] = tested on: single-stranded DNA (5′-d(agcaaaaaacgc)-3′; SEQ ID NO: 7) (a sense strand); test: Melting temperature (Tm), capability of forming double strand with single-stranded DNA; format: binding; settings: for capability of forming a double strand with single-stranded DNA versus single-stranded RNA: antisense strand as shown in SEQ ID NO: 1, modified with one base; for Tm: pH 7.2
[2] = tested on: single-stranded RNA (5′-r(agcaaaaaacgc)-3′; SEQ ID NO: 8) (a sense strand); format: binding; settings: pH 7.2

Substance	capability of forming a double strand with single-stranded DNA versus single-stranded RNA [1]	Tm [1] [°C]	Tm [2] [°C]
5′-d(gcgttxtttgct)-3′ x = (B)β-T: (B)β-T modified oligonucleotide, antisense 12-mer DNA (SEQ ID NO: 1), one x = (B)β-T unit from compound B-13 (antisense GCGTTTTTTGCT; sugars from the 5' end d5 [(B)β]1 d6, backbone not given here)	superior capability of forming a double strand together with single-stranded DNA over single-stranded RNA		
5′-d(gcgtxxxttgct)-3′ x = NMe-T: reference antisense 12-mer (SEQ ID NO: 3); three x = formula (9) unit, Base thymin-1-yl, R^b Me (antisense GCGTTTTTTGCT; sugars from the 5' end d4 [NMe]3 d5, backbone and methylation of C not given here)		51	60
5′-d(gcgxtxtxtgct)-3′ x = NMe-T: reference antisense 12-mer (SEQ ID NO: 2); three x = formula (9) unit, Base thymin-1-yl, R^b Me (antisense GCGTTTTTTGCT; sugars from the 5' end ddd[NMe]d[NMe]d[NMe]dddd, backbone and methylation of C not given here)		52	64
5′-d(gcgttxtttgct)-3′ x = (C)Hβ-T: (C)Hβ-T modified oligonucleotide, antisense 12-mer DNA (SEQ ID NO: 1), one x = (C)Hβ-T unit from compound C-8 (antisense GCGTTTTTTGCT; sugars from the 5' end d5 [(C)Hβ]1 d6, backbone not given here)	superior capability of forming a double strand together with single-stranded DNA over single-stranded RNA		
